Experimental data taken from patent US20070276049A1 (priority 2003, published 2007).
Where two headings read alike, the source gives them in different places.

Experiments:
rabbit RBCs [1] = format: cell-based
human RBCs = format: cell-based
rabbit RBCs [2] = assay: Streptolysin O-induced hemolysis on RBC-containing agar plates; format: cell-based; settings: GML 10 μg/ml in agar; Group A Streptococci stabbed into agar
Procedure: GML (10 μg/ml) was incorporated into culture plates containing solid agar and rabbit RBCs suspended in the agar. The effect of GML on. streptolysin O-induced hemolysis was tested by stabbing the Group A Streptococci into the agar so as to permit the anaerobic growth of the bacteria beneath the surface of the agar and thereby allow streptolysin O to function.

HIV-1 = format: cell-based
[3] = system: Streptococcus pyogenes T18P; format: cell-based, S. pyogenes; settings: GML 10 and 20 ug/ml
rabbit RBCs [4] = system: rabbit RBCs

Row | Compound | Absorbance at 410 nm (rabbit RBCs [1]) | lysis of RBCs (rabbit RBCs [1]) | lysis of RBCs by hemolysin (rabbit RBCs [1]) | lysis of human RBCs by the B. anthracis exotoxin (human RBCs; GML 1 μg/ml) | lysis of human RBCs by the B. anthracis exotoxin (human RBCs; GML 10 μg/ml) | streptolysin O-induced hemolysis of RBCs (rabbit RBCs [2]) | cells expressing p24 (HIV-1) | total number of cells in the samples (HIV-1) | number of bacteria in the epithelial cells [3] | RBC lysis by GML alone (rabbit RBCs [4]) | lysis of rabbit RBCs by the B. anthracis exotoxin (rabbit RBCs [4]; GML 5 μg/ml) | lysis of rabbit RBCs by the B. anthracis exotoxin (rabbit RBCs [4]; GML 10 μg/ml)
1 | α-hemolysin | 0.97 | complete cell lysis | – | – | – | – | – | – | – | – | – | –
2 | CCCCCCCCCCCC(=O)OCC(O)CO (stereo not drawn) [GML, glycerol monolaurate] | – | – | completely prevented | partially inhibited | completely inhibited | completely prevented | rare and no | significantly less | dramatic decreases | did not cause RBC lysis | partially inhibited | almost completely inhibited
